Patent US9533982B2, “Substituted bicyclic heteroaryl carboxamide analogs as mGluR5 negative allosteric modulators” (Vanderbilt University, priority 2014, dated 2017)

test system: not given; assay: not given; conditions: intravenous administration to rhesus monkeys; cited from earlier work

Row | SMILES | clearance
1 | Cc1nc(C#Cc2cccnc2)cs1 [MTEP, 3-[(2-methyl-1,3-thiazol-4-yl)ethynyl]pyridine] | efficiently cleared

test system: N-methyl-D-aspartate (NMDA) receptor; assay: not given; conditions: at higher concentrations; cited from earlier work

Row | SMILES | inhibition of NMDA receptor activity
2 | Cc1cccc(C#Cc2ccccc2)n1 [MPEP, 2-methyl-6-(phenylethynyl)pyridine] | directly inhibit

target: T1, cytochrome P450 1A2 (Homo sapiens, UniProt P05177); assay: not given; conditions: cited from earlier work
T1 sequence (P05177 1-516): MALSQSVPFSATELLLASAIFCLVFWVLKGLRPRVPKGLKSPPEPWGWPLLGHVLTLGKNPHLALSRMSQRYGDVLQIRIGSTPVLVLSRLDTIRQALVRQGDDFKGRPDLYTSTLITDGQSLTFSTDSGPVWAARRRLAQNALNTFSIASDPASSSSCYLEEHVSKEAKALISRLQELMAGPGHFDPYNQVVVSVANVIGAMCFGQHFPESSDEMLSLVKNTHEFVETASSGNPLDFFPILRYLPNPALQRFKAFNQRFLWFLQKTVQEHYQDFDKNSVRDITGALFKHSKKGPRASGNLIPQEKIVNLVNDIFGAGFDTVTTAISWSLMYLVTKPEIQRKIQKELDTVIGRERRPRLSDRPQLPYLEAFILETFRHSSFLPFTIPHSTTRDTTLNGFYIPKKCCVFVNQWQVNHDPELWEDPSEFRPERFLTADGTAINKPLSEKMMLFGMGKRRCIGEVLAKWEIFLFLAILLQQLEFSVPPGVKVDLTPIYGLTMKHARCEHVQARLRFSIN

Row | SMILES | inhibition of cytochrome P450 1A2
3 | Cc1nc(C#Cc2cccnc2)cs1 [MTEP, 3-[(2-methyl-1,3-thiazol-4-yl)ethynyl]pyridine] | potent inhibitor

test system: marble burying activity in mice; assay: not given; conditions: literature reports; cited from earlier work

Row | SMILES | effect in the marble burying model
4 | Cc1cccc(C#Cc2ccccc2)n1 [MPEP, 2-methyl-6-(phenylethynyl)pyridine] | effective
5 | CN1CC(=O)N=C1NC(=O)Nc1cccc(Cl)c1 [fenobam, 1-(3-chlorophenyl)-3-(1-methyl-4-oxo-4,5-dihydro-1H-imidazol-2-yl)urea] | effective

target: mGluR4 (Homo sapiens, UniProt Q14833); assay: not given; conditions: cited from earlier work
Sequence (Q14833 33-912): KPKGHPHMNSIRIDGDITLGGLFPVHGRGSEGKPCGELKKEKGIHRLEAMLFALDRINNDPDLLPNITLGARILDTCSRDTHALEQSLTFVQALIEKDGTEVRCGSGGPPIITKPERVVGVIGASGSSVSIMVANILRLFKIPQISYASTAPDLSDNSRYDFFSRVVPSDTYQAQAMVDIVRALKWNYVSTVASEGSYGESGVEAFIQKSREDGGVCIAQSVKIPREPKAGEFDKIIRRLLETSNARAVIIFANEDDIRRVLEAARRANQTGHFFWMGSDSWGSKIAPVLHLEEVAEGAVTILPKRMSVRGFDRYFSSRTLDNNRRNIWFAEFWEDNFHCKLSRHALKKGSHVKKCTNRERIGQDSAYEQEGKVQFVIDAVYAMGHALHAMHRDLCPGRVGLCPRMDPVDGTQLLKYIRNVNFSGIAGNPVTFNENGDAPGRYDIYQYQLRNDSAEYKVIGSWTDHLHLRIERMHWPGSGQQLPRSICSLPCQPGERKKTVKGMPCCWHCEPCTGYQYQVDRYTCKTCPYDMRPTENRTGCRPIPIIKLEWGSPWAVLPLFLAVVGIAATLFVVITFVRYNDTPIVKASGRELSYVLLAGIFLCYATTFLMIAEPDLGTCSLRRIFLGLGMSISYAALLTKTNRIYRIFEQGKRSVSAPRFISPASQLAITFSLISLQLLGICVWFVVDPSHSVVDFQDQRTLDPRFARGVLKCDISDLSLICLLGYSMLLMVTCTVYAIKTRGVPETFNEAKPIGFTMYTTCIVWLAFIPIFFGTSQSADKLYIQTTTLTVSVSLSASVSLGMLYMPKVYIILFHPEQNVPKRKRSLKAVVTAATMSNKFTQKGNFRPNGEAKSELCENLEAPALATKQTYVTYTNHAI

Row | SMILES | modulation of mGluR4
6 | Cc1cccc(C#Cc2ccccc2)n1 [MPEP, 2-methyl-6-(phenylethynyl)pyridine] | positive allosteric modulator

target: T2, rat mGluR5 (Rattus norvegicus, UniProt P31424); assay: mGluR5 activity, cell-based Ca2+ fluorescence (FDSS) assay in human embryonic kidney cells transfected with rat mGluR5; conditions: HEK cells transfected with rat mGluR5; antagonism of EC80 glutamate response; single experiment or average of two where no error is given
T2 construct: expressed in transfected cells
Method: Human embryonic kidney (HEK) cells transfected with rat or human mGluR5 were plated in clear bottom assay plates for assay in a Functional Drug Screening System (FDSS). The cells were loaded with a Ca^2+-sensitive fluorescent dye (e.g., Fluo-4), and the plates were washed and placed in the FDSS instrument. Test compound was applied to cells 3 seconds after baseline readings were taken. Cells were incubated with the test compounds for 140 seconds and then stimulated with an EC20 concentration of an mGluR5 agonist (e.g., glutamate, 3,5-dihydroxyphenylglycine, or quisqualate); 60-80 seconds later an EC80 concentration of agonist was added and readings taken for an additional 40 seconds. Data were collected at 1 Hz. […] Concentration response curves were generated using a four parameter logistical equation.
The above described assay was operated in two modes. In the first mode (utilizing a triple add protocol), a range of concentrations of the present compounds were added to cells, followed by two single fixed concentrations of agonist (EC20 followed by EC80). If a compound acted as a potentiator, an EC50 value for potentiation of the EC20 response and a maximum extent of potentiation by the compound at this concentration of agonist was determined by non-linear curve fitting. If a compound acted as an antagonist, an IC50 value for antagonism of the EC80 response and a maximum extent of antagonism by the compound at this concentration of agonist was determined by non-linear curve fitting. In the second mode (utilizing a double add protocol), several fixed concentrations of the present compounds were added to various wells on a plate, followed by a range of concentrations of agonist for each concentration of present compound; the EC50 values for the agonist at each concentration of compound were determined by nonlinear curve fitting. A decrease in the EC50 value of the agonist with increasing concentrations of the present compounds (a leftward shift of the agonist concentration-response curve) is an indication of the degree of mGluR5 positive allosteric modulation at a given concentration of the present compound. An increase in the EC50 value of the agonist with increasing concentrations of the present compounds (a rightward shift of the agonist concentration response curve) is an indication of the degree of mGluR5 antagonism at a given concentration of the present compound. The second mode also indicates whether the present compounds also affect the maximum response to mGluR5 to agonists.
The mGluR5 activity was determined using the metabotropic glutamate receptor activity assays in human embryonic kidney cells as described herein, wherein the human embryonic kidney cells were transfected with rat mGluR5. The mGluR5 activity data for some compounds are shown as the average of at least three experiments with the standard error in these cases. If no error is indicated for the mGluR5 activity, the values given represent the results from a single experiment or the average of two experiments. The compounds in Table 1 were synthesized with methods identical or analogous to those shown herein. The requisite starting materials were commercially available, described in the literature, or readily synthesized by one skilled in the art of organic synthesis.

T2 sequence (P31424 21-1171 isoform P31424-2 limits assumed): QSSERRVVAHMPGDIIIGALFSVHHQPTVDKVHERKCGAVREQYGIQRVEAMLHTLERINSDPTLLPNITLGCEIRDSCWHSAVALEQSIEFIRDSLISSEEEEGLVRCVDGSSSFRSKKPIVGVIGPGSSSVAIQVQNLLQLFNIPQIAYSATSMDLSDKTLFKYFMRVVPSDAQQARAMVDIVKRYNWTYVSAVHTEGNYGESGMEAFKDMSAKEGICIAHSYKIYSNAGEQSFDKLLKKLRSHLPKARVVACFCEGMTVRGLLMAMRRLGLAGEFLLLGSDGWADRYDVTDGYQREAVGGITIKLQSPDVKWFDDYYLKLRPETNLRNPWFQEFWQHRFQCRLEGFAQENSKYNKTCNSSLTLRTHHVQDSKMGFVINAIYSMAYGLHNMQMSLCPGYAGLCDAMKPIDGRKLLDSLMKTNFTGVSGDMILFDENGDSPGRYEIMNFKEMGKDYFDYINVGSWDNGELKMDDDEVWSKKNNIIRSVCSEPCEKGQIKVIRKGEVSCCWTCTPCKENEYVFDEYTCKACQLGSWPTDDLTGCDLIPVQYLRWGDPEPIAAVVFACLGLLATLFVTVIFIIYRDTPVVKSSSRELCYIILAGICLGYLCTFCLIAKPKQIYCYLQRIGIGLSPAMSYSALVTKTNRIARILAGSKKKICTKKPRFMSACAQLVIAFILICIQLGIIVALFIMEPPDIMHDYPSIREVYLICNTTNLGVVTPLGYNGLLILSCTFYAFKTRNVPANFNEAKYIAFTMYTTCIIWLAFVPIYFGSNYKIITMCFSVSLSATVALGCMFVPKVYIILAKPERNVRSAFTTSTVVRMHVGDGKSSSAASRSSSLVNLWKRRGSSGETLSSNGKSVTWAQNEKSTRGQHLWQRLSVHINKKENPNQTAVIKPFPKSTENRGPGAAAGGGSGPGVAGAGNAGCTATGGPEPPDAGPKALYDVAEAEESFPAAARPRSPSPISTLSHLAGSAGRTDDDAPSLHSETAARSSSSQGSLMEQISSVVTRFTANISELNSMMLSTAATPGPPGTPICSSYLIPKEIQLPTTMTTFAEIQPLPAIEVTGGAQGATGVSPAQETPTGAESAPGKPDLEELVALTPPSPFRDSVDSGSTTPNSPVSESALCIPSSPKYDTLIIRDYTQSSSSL

Row | SMILES | IC50
7 | O=C(c1cncnc1)c1cc(C(=O)Nc2ccc(F)cn2)c2ncccc2c1 | 0.106 µM
8 | O=C(c1cncnc1)c1cc(C(=O)Nc2ccc(Cl)cn2)c2ncccc2c1 | 0.148 µM
9 | Cc1csc(NC(=O)c2cc(C(=O)c3cncnc3)cc3cccnc23)n1 | 0.073 µM
10 | Cc1cccc(NC(=O)c2cc(C(=O)c3cncnc3)cc3cccnc23)n1 | 0.163 µM
11 | O=C(c1cncnc1)c1cc(C(=O)Nc2cccc(F)n2)c2ncccc2c1 | 0.645 µM
12 | O=C(c1cncnc1)c1cc(C(=O)Nc2cccc(Cl)n2)c2ncccc2c1 | 0.696 µM
13 | O=C(c1cncc(F)c1)c1cc(C(=O)Nc2ccc(Cl)cn2)c2ncccc2c1 | > 30 µM
14 | Cc1cccc(NC(=O)c2cc(C(=O)c3cncc(F)c3)cc3cccnc23)n1 | 1.62 µM
15 | Cc1csc(NC(=O)c2cc(C(=O)c3cncc(F)c3)cc3cccnc23)n1 | 0.444 µM
16 | O=C(c1cncc(F)c1)c1cc(C(=O)Nc2cccc(Cl)n2)c2ncccc2c1 | > 30 µM
17 | O=C(Nc1ccc(F)cn1)c1cc(C(F)c2cncnc2)cc2cccnc12 (stereo not drawn) | 0.083 µM
18 | Cc1csc(NC(=O)c2cc(C(F)c3cncnc3)cc3cccnc23)n1 (stereo not drawn) | 0.127 µM
19 | O=C(Nc1ccc(F)cn1)c1cc(C(F)(F)c2cncnc2)cc2cccnc12 | 0.109 µM
20 | COC(c1cncnc1)c1cc(C(=O)Nc2ccc(F)cn2)c2ncccc2c1 (stereo not drawn) | 0.89 µM
21 | COC(c1cncnc1)c1cc(C(=O)Nc2nc(C)cs2)c2ncccc2c1 (stereo not drawn) | 0.552 µM
22 | Cc1csc(NC(=O)c2cc(C(C)c3cncnc3)cc3cccnc23)n1 (stereo not drawn) | 0.258 µM
23 | CC(c1cncnc1)c1cc(C(=O)Nc2ccc(F)cn2)c2ncccc2c1 (stereo not drawn) | 0.54 µM
24 | Cc1csc(NC(=O)c2cc(C(O)c3cncc(F)c3)cc3cccnc23)n1 (stereo not drawn) | > 30 µM
25 | O=C(c1cncnc1)c1cc(C(=O)Nc2ccc(F)cn2)c2nccnc2c1 | > 10 µM
26 | Cc1csc(NC(=O)c2cc(C(=O)c3cncnc3)cc3nccnc23)n1 | 0.38 µM
27 | O=C(c1cncnc1)c1cc(C(=O)Nc2ccc(Cl)cn2)c2nccnc2c1 | 0.176 µM
28 | Cc1cccc(NC(=O)c2cc(C(=O)c3cncnc3)cc3nccnc23)n1 | 3.09 µM
29 | O=C(Nc1ccc(F)cn1)c1cc(C(F)c2cncnc2)cc2nccnc12 (stereo not drawn) | > 10 µM
30 | Cc1csc(NC(=O)c2cc(C(O)c3cncnc3)cc3cccnc23)n1 (stereo not drawn) | > 10 µM
